Experimental data from patent publication US20220235051A1, “DI-FLUORO AZEPANES AS HBV CAPSID ASSEMBLY MODULATORS” (priority 2019, published 2022).

Tested on: HBV
Test: HBV replication inhibition assay (BDNA assay) in HepG2.2.15 cells
Type: cell-based
Conditions: Hepatitis B virus, HepG2.2.15, 144 h, HepG2.2.15 cells, BDNA assay, encapsidated HBV DNA in supernatant at day 6; read-out: HepG2.2.15 EC50 HBV DNA
Protocol: HBV replication inhibition by the disclosed compounds were determined in cells infected or transfected with HBV or cells with stably integrated HBV, such as HepG2.2.15 cells (Sells et al. 1987). In this example, HepG2.2.15 cells were maintained in cell culture medium containing 10% fetal bovine serum (FBS), Geneticin, L-glutamine, penicillin and streptomycin. HepG2.2.15 cells were seeded in 96-well plates at a density of 40,000 cells/well and were treated with serially diluted compounds at a final DMSO concentration of 0.5% either alone or in combination by adding drugs in a checker box format. Cells were incubated with compounds for three days, after which medium was removed and fresh medium containing compounds was added to cells and incubated for another three days. At day 6, supernatant was removed and treated with DNase at 37° C. for 60 minutes, followed by enzyme inactivation at 75° C. for 15 minutes. Encapsidated HBV DNA was released from the virions and covalently linked HBV polymerase by incubating in lysis buffer (Affymetrix QS0010) containing 2.5 μg proteinase K at 50° C. for 40 minutes. HBV DNA was denatured by addition of 0.2 M NaOH and detected using a branched DNA (BDNA) QuantiGene assay kit according to manufacturer recommendation (Affymetrix). HBV DNA levels were also quantified using qPCR, based on amplification of encapsidated HBV DNA extraction with QuickExtraction Solution (Epicentre Biotechnologies) and amplification of HBV DNA using HBV specific PCR probes that can hybridize to HBV DNA and a fluorescently labeled probe for quantitation. In addition, cell viability of HepG2.2.15 cells incubated with test compounds alone or in combination was determined by using CellTitre-Glo reagent according to the manufacturer protocol (Promega). The mean background signal from wells containing only culture medium was subtracted from all other samples, and percent inhibition at each compound concentration was calculated by normalizing to signals from HepG2.2.15 cells treated with 0.5% DMSO using equation E1.
% inhibition=(DMSOave−Xi)/DMSOave×100% E1
where DMSOave is the mean signal calculated from the wells that were treated with DMSO control (0% inhibition control) and Xi is the signal measured from the individual wells. EC50 values, effective concentrations that achieved 50% inhibitory effect, were determined by non-linear fitting using Graphpad Prism software (San Diego, Calif.) and equation E2.
Y=Ymin+(Ymax−Ymin)/(1+10(Log EC50−X)×HillSlope) E2
where Y represents percent inhibition values and X represents the logarithm of compound concentrations.
Selected disclosed compounds were assayed in the HBV replication assay (BDNA assay), as described above, and a representative group of these active compounds is shown in Table 3.

| Structure (SMILES) | EC50 |
| --- | --- |
| O=C(Nc1ccnc(Br)c1F)N1CCc2nn3c(c2C1)C(F)(F)CCC(O)(COCC(F)F)C3 (single isomer, unassigned) [Example 32, (R*)-N-(2-Bromo-3-fluoropyridin-4-yl)-8-((2,2-difluoroethoxy)methyl)-11,11-difluoro-8-hydroxy-3,4,8,9,10,11-hexahydro-1H-pyrido[4′,3′:3,4]pyrazolo[1,5-a]azepine-2(7H)-carboxamide] | 138 nM |
| C=CC1(O)CCC(F)(F)c2c3c(nn2C1)CCN(C(=O)Nc1ccc(F)c(C#N)c1)C3 (single isomer, unassigned) [Example 56, (R*)-N-(3-Cyano-4-fluorophenyl)-11,11-difluoro-8-hydroxy-8-vinyl-3,4,8,9,10,11-hexahydro-1H-pyrido[4′,3′:3,4]pyrazolo[1,5-a]azepine-2(7H)-carboxamide] | 16 nM |
| C[C@@H]1Cc2nn3c(c2CN1C(=O)Nc1ccc(F)c(C#N)c1)C(F)(F)CC[C@@H](O)C3 [Example 67, (3R,8R)-N-(3-cyano-4-fluorophenyl)-11,11-difluoro-8-hydroxy-3-methyl-3,4,8,9,10,11-hexahydro-1H-pyrido[4′,3′:3,4]pyrazolo[1,5-a]azepine-2(7H)-carboxamide] | 4 nM |
| C[C@@H]1Cc2nn3c(c2CN1C(=O)Nc1ccc(F)c(C(F)(F)F)c1)C(F)(F)CC[C@@H](O)C3 [Example 69, (3R,8R)-11,11-Difluoro-N-(4-fluoro-3-(trifluoromethyl)phenyl)-8-hydroxy-3-methyl-3,4,8,9,10,11-hexahydro-1H-pyrido[4′,3′:3,4]pyrazolo[1,5-a]azepine-2(7H)-carboxamide] | 7 nM |
| N#Cc1cc(NC(=O)N2CCc3nn4c(c3C2)C(F)(F)CC[C@@H](OCC(F)F)C4)ccc1F [Example 14, (R)-N-(3-Cyano-4-fluorophenyl)-8-(2,2-difluoroethoxy)-11,11-difluoro-3,4,8,9,10,11-hexahydro-1H-pyrido[4′,3′:3,4]pyrazolo[1,5-a]azepine-2(7H)-carboxamide] | 51 nM |
| C[C@@H]1Cc2nn3c(c2CN1C(=O)Nc1ccc(F)c(C#N)c1)C(F)(F)C(O)CCC3 (stereo partly drawn) [Example 143, (3R)-N-(3-Cyano-4-fluorophenyl)-11,11-difluoro-10-hydroxy-3-methyl-1,3,4,7,8,9,10,11-octahydro-2H-pyrido[4′,3′:3,4]pyrazolo[1,5-a]azepine-2-carboxamide] | 154 nM |
| N#Cc1cc(NC(=O)N2CCc3nn4c(c3C2)C(F)(F)CC[C@H](O)C4)ccc1F [Example 3, (S)-N-(3-Cyano-4-fluorophenyl)-11,11-difluoro-8-hydroxy-3,4,8,9,10,11-hexahydro-1H-pyrido[4′,3′:3,4]pyrazolo[1,5-a]azepine-2(7H)-carboxamide] | 22 nM |
| C[C@@H]1Cc2nn3c(c2CN1C(=O)Nc1ccnc(C(F)F)c1F)C(F)(F)CC[C@@H](O)C3 [Example 70, (3R,8R)-N-(2-(Difluoromethyl)-3-fluoropyridin-4-yl)-11,11-difluoro-8-hydroxy-3-methyl-3,4,8,9,10,11-hexahydro-1H-pyrido[4′,3′:3,4]pyrazolo[1,5-a]azepine-2(7H)-carboxamide] | 31 nM |
| N#Cc1c(F)ccc(NC(=O)N2CCc3nn4c(c3C2)C(F)(F)CC[C@@H](O)C4)c1F [Example 11, (R)-N-(3-Cyano-2,4-difluorophenyl)-11,11-difluoro-8-hydroxy-3,4,8,9,10,11-hexahydro-1H-pyrido[4′,3′:3,4]pyrazolo[1,5-a]azepine-2(7H)-carboxamide] | 24 nM |
| C[C@@H]1Cc2nn3c(c2CN1C(=O)Nc1ccc(F)c(C#N)c1)C(F)(F)CCC(O)(CF)C3 (single isomer, unassigned) [Example 83, (3R,8R*)-N-(3-Cyano-4-fluorophenyl)-11,11-difluoro-8-(fluoromethyl)-8-hydroxy-3-methyl-3,4,8,9,10,11-hexahydro-1H-pyrido[4′,3′:3,4]pyrazolo[1,5-a]azepine-2(7H)-carboxamide] | 10 nM |
| COC(=O)NCC1CCC(F)(F)c2c3c(nn2C1)CCN(C(=O)Nc1ccnc(Br)c1F)C3 (centres unmarked) [Example 54, Methyl ((2-((2-bromo-3-fluoropyridin-4-yl)carbamoyl)-11,11-difluoro-2,3,4,7,8,9,10,11-octahydro-1H-pyrido[4′,3′:3,4]pyrazolo[1,5-a]azepin-8-yl)methyl)-carbamate] | 8 nM |
